Consider 1 compound from patent US20100081719A1 (priority 2006, published 2010).

The test system of data set [1] is patients who meet the 1990 ACR criteria for fibromyalgia syndrome. The data set can be described thus: Multicenter, double-blind, randomized, placebo-controlled monotherapy study of milnacipran for treatment of fibromyalgia (Example 2). The data set is classed as in vivo, human. To be noted: 3-month treatment period (LOCF), intent-to-treat; for MFI total score, Change from baseline, Difference from Placebo / MFI total score, Change from baseline, LS Mean (SE): ANCOVA. On the procedure: This was a multicenter, randomized, double-blind, placebo-controlled three-arm study designed which enrolled 1196 patients who meet the 1990 ACR criteria for fibromyalgia syndrome (history of widespread pain and pain in 11 of 18 tender point sites on digital palpation), as well as the more detailed admission criteria outlined in the protocol.
All randomized medications (placebo and milnacipran) were administered twice a day (BID).
(i) Primary Efficacy Assessments: Patient Global Impression of Change (PGIC) administered to patients at visits Tx3, Tx7, Tx11 and Tx15/ET; Physical Component summary of SF-36 (SF-36 PCS) administered to patients at visits BL2/Tx0, Tx3, Tx7, Tx11 and Tx15/ET; (ii) Secondary Efficacy Assessments: Time weighted average (AUC) of weekly average PED morning recall pain score; PGIC and SF-36 PCS administered to patients at visits Tx3 to Tx15.
(iii) Additional Efficacy Measurements: The Fibromyalgia Impact Questionnaire (FIQ) total score and physical function, Beck Depression Inventory (BDI), the MOS-Sleep Index Scale, the Arizona Sexual Experiences Scale (ASEX), Patient pain 24 hour and 7 day recall VAS, the SF-36 individual domains, Patient Global Disease Status, Patient Global Therapeutic Benefit, the Multiple Ability Self-report Questionnaire (MASQ, cognitive function), the Multidimensional Health Assessment Questionnaire (MDHAQ), Multidimensional Fatigue Inventory (MFI), and diary assessments including current pain (morning, random daily, and evening reports); overall pain past week (weekly report), overall fatigue in the last week (weekly report), and the extent that pain kept the patient from caring for themselves (weekly report).

The next data set concerns fibromyalgia patients. The following applies: cited from earlier work.
The mark [2] stands for this setting: both milnacipran treatment groups (BID and QD), up to 200 mg/day.

Structures can show the parent of a compound that is named as a salt.

Take `CCN(CC)C(=O)C1(c2ccccc2)CC1CN` (racemic) [milnacipran, Z-2-aminomethyl-1-phenyl-N, N-diethylcyclopropanecarboxamide hydrochloride]: in data set [1] (100 mg milnacipran), the “MFI total score, Actual, Mean” value worked out at 63.00; the “MFI total score, Actual, Median” value came to 64.0; the “MFI total score, Change from baseline, Mean” value is −5.39; the “MFI total score, Change from baseline, Median” value is listed as −4.0. In data set [1] (100 mg milnacipran), the “MFI total score, Change from baseline, Difference from Placebo” value is given as −1.80 and the “MFI total score, Change from baseline, LS Mean (SE)” value is reported as −5.47 (0.792). For the same compound, in data set [1] (200 mg milnacipran), the “MFI total score, Actual, Mean” value turned out to be 64.15; the “MFI total score, Actual, Median” value is 65.0; the “MFI total score, Change from baseline, Mean” value is −5.39; the “MFI total score, Change from baseline, Median” value is recorded as −4.0. For the same compound, in data set [1] (200 mg milnacipran), the “MFI total score, Change from baseline, Difference from Placebo” value is reported as −1.55 and the “MFI total score, Change from baseline, LS Mean (SE)” value is listed as −5.63 (0.787). Also, in the data set with fibromyalgia patients (100 mg BID), the “Therapy for the symptom of pain in FMS” value is given as “effective acute (short-term) therapy”. Besides, in the data set on fibromyalgia patients (setting [2]), the “PGIC: completers who reported an improvement in their overall status” value is “over 70%” and the “PGIC: completers who reported worsening” value is given as 10%. Moreover, in the data set with fibromyalgia patients (milnacipran-treated patients), the “Deaths or serious adverse events associated with treatment” value was “no deaths or serious adverse events” and the “Patients in whom elevation in hepatic enzymes resulted in adverse events” value is 2%. In addition, the “Effect on fatigue, mood, global wellness, and function, BID vs QD dosing” value with fibromyalgia patients (twice-daily (BID) vs once-daily (QD) dosing) is “approximately equally effective”. Further, in the data set with fibromyalgia patients (twice-daily vs QD dosing), the “Treating pain, BID vs QD dosing” value is “more effective in treating pain than QD dosing”.
